Measured values taken from patent publication US7652047B2, “Phenylamino isothiazole carboxamidines as MEK inhibitors” (Ardea Biosciences, Inc., priority 2005, dated 2010).
Like-named read-outs stand apart in the source and are kept apart here.

Target: T1, MEK1^CA (human GST-MEK1, constitutively active, Ser218Asp and Ser222Asp) (Homo sapiens, UniProt Q02750, S218D/S222D)
T1 construct: GST; made in house; host or cells: Escherichia coli
Test: MEK1 enzymatic activity assay (MEK1^CA / ERK2 / MBP, [γ-33P]ATP incorporation)
Format: biochemical
From the text: Materials and preparation of reagents: Human GST-MEK1 and the constitutively active allele GST-MEK1^CA (harboring the mutations Ser218Asp and Ser222Asp) were subcloned into the […] expression vector pGEM4Z (Promega, Madison, Wis.) from the wild type human MEK1 cDNA. GST-MEK1^CA was expressed in Escherichia coli and partially purified using Glutathione Sepharose 4B affinity resin (Amersham Pharmacia Biotech, Piscataway, N.J.). The ERK2 allele was subcloned from MAPK2/Erk2 cDNA (wild type) in pUSEamp (Upstate Biotechnology, Inc., Waltham, Mass.) into the vector pET21a (Novagen, Madison, Wis.) resulting in an N-terminal histidine-tagged mouse ERK2 allele. […] Myelin basic protein (MBP) was purchased from Gibco BRL (Rockville, Md.). EasyTides adenosine 5′-triphosphate (ATP) ([γ-^33P]) (NEN Perkin Elmer, Wellesley, Mass.) was the source of radiolabel for all kinase reactions. Activated Raf-1 (truncated) and activated MAPKinase 2/ERK2 were purchased from Upstate, Inc. (Lake Placid, N.Y.). 4-20% Criterion Precast gels were purchased from Bio-Rad (Hercules, Calif.).
A typical 25-microliter assay contained 0.002 nanomoles MEK1^CA, 0.02 nanomoles ERK2, 0.25 nanomoles MBP, 0.25 nanomoles unlabeled ATP, and 0.1 μCi [γ^33P] ATP. The screening assay essentially comprised four additions. Five μl of diluted compound were dispensed to 96-well assay plates. Ten μl of 2.5× enzyme cocktail (MEK1^CA and ERK2 only) were then added to each well followed by a pre-incubation for 30 minutes at ambient temperature. […] Finally, 100 μl of 10% trichloroacetic acid (TCA) were added and incubated for 30 minutes at room temperature to halt the reaction and precipitate radiolabeled protein products. Reaction products were harvested on glass fiber 96 well filter plates prewetted with water and 1% pyrophosphate. The filter plate was then washed 5 times with water. Water was displaced by absolute ethanol and the plate was allowed to air dry for 30 minutes at room temperature. A back seal was applied manually and 40 μl of scintillation cocktail were dispensed to each well. A top seal was applied and the plate was counted in the TopCount for two seconds per well.

[1] = Table 1, compounds of formula I, read-out: Avg IC50

T1 sequence (Q02750 whole entry S218D/S222D): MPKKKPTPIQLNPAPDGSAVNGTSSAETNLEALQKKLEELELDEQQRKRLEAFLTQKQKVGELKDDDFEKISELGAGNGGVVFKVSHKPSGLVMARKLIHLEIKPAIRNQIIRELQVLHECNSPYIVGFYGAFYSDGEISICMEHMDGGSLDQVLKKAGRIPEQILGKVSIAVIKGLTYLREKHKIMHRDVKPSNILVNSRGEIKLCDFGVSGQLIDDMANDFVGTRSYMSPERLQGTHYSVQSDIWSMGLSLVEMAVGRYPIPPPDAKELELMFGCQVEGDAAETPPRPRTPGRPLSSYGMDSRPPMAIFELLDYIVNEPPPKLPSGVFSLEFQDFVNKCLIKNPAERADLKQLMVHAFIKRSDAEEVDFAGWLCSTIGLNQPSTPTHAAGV

## N=C(NCC(c1ccccc1)c1ccccc1)c1c(O)nsc1Nc1ccc(Oc2ccccc2)cc1 [compound 48]
[1]
  IC50: 1 to 100 nM

## CC(C)NC(=N)c1c(O)nsc1Nc1ccc(C(=O)Nc2ccccc2)cc1 [drawing 810]
Table 3, benzamides of formula X, read-out: IC 50
  IC50: 1 to 100 nM

## CC(C)NC(=N)c1c(O)nsc1Nc1ccc(Oc2cc(F)ccc2Cl)c(Cl)c1 [compound 382]
[1]
  IC50: 1 to 100 nM

## N=C(NCC1CCCCC1)c1c(O)nsc1Nc1ccc(Sc2ccc([N+](=O)[O-])cc2)cc1 [drawing 831]
Table 4, R' is (CH2)1 or 2-G, read-out: IC50
  IC50: 100 to 500 nM

## CC(CO)NC(=N)c1c(O)nsc1Nc1ccc(Oc2cccc(F)c2)c(F)c1 (centres unmarked) [compound 362]
[1]
  IC50: 1 to 100 nM

## CC(C)NC(=N)c1c(O)nsc1Nc1ccc(Oc2cccc(C(F)(F)F)c2)cc1 [compound 275]
[1]
  IC50: 1 to 100 nM

## N=C(NCC(O)O)c1c(O)nsc1Nc1ccc(Oc2ccc(Cl)cc2Cl)cc1 [compound 229]
[1]
  IC50: 1 to 100 nM

## N=C(NO)c1c(O)nsc1Nc1ccc(Oc2cc(Cl)ccc2Cl)cc1 [compound 450]
[1]
  IC50: 1 to 100 nM

## CC(=O)Nc1ccc(Oc2ccc(Nc3snc(O)c3C(=N)NCC(O)CO)cc2)cc1 (centres unmarked) [compound 145]
[1]
  IC50: > 500 nM

## CC(CO)NC(=N)c1c(O)nsc1Nc1ccc(Oc2ccc(S(C)(=O)=O)cc2)cc1 (centres unmarked) [compound 491]
[1]
  IC50: > 500 nM

## CCCCCCCCCCOCC(O)CNC(=N)c1c(O)nsc1Nc1ccc(Oc2ccccc2)cc1 (centres unmarked) [compound 187]
[1]
  IC50: > 500 nM

## Cc1cc(Oc2cccc(C(F)(F)F)c2)ccc1Nc1snc(O)c1C(=N)NC(C)CO (centres unmarked) [compound 438]
[1]
  IC50: 1 to 100 nM

## CNC(=N)c1c(O)nsc1Nc1ccc(C(=O)N2CCc3cc(Cl)ccc32)cc1 [E-21]
Table 2, Ar1-A contains an amido or indolo group, read-out: IC 50
  IC50: 200 to 1000 nM

## N=C(NCCO)c1c(O)nsc1Nc1ccc(-c2nc3ccccc3[nH]2)cc1 [compound 511]
[1]
  IC50: > 500 nM

## CC(C)NC(=N)c1c(O)nsc1Nc1ccc(Oc2cccc(Cl)c2Cl)c(Cl)c1 [compound 383]
[1]
  IC50: 1 to 100 nM

## CC(C)NC(=N)c1c(O)nsc1Nc1ccc(Oc2cc(Cl)ccc2Cl)c(F)c1 [compound 367]
[1]
  IC50: 1 to 100 nM

## CC(C)NC(=N)c1c(O)nsc1Nc1ccc(Oc2ccc(O)cc2)cc1 [compound 298]
[1]
  IC50: 100 to 500 nM

## N=C(NCC1CCCCC1)c1c(O)nsc1Nc1ccc(C(=O)c2ccccc2)cc1 [compound 104]
[1]
  IC50: 100 to 500 nM

## CC(CO)NC(=N)c1c(O)nsc1Nc1ccc(Oc2ccccc2Cl)c(F)c1 (centres unmarked) [compound 278]
[1]
  IC50: 1 to 100 nM

## Cc1cc(Nc2snc(O)c2C(=N)NC(C)C)ccc1Oc1ccc(F)cc1 [compound 397]
[1]
  IC50: > 500 nM

## N=C(NCC1CCCCC1)c1c(O)nsc1NCC1CC1 [compound 119]
[1]
  IC50: > 500 nM

## COc1ccc(Nc2snc(O)c2-c2nnn[nH]2)c(OC)n1 [compound 181]
[1]
  IC50: > 500 nM

## N#Cc1cccc(Nc2snc(O)c2C(N)=NCC2CCCCC2)c1 [compound 71]
[1]
  IC50: > 500 nM

## CC(CO)NC(=N)c1c(O)nsc1Nc1ccc(Oc2ccc(C(F)(F)F)cc2)cc1 (centres unmarked) [compound 377]
[1]
  IC50: > 500 nM

## CCn1sc(Nc2ccc(Oc3ccccc3)cc2)c(C(=N)NC(C)C)c1=O [compound 194]
[1]
  IC50: > 500 nM

## N=C(NCC1CCCCC1)c1c(O)nsc1Nc1ccc(Oc2cncnc2)cc1 [compound 137]
[1]
  IC50: > 500 nM

## Cc1cc(Nc2snc(O)c2C(=N)NC(C)C)ccc1Oc1ccccc1 [compound 317]
[1]
  IC50: 100 to 500 nM

## N=C(NCCO)c1c(O)nsc1Nc1ccc(Oc2ccc(Cl)cc2Cl)cc1 [compound 221]
[1]
  IC50: 100 to 500 nM

## Cc1cc(Oc2cccc(C(F)(F)F)c2)ccc1Nc1snc(O)c1C(=N)NO [compound 471]
[1]
  IC50: > 500 nM

## N=C(NCC(O)O)c1c(O)nsc1Nc1ccc(Oc2ccc(F)cc2)cc1 [compound 203]
[1]
  IC50: > 500 nM

## CC(C)NC(=N)c1c(O)nsc1Nc1ccc(Oc2ccccc2F)c(F)c1 [compound 310]
[1]
  IC50: 1 to 100 nM

## CN1CCCC1CCNC(=N)c1c(O)nsc1Nc1ccc(Oc2ccccc2)cc1 (centres unmarked) [compound 148]
[1]
  IC50: > 500 nM

## N=C(NCC1CCCCC1)c1c(O)nsc1Nc1ccc(Cc2ccccc2)cc1 [compound 127]
[1]
  IC50: 100 to 500 nM

## Cc1ccc(Oc2ccc(Nc3snc(O)c3C(=N)NCC3CCCCC3)cn2)cn1 [compound 134]
[1]
  IC50: > 500 nM

## N=C(NCC1CCCCC1)c1c(O)nsc1Nc1ccccc1 [compound 93]
[1]
  IC50: > 500 nM
